Results: patent US5155209A, “R-(+) enantiomeric form of 7-(2, 3-epoxypropoxy) actinomycin D” (priority 1991, dated 1992)

Legend:
P388/ADR [1] = experiment: Inhibition of growth in vitro of P388/ADR cells; type: cell-based, mouse; settings: actively growing tumor cells
Description: (§1) The analogues are assayed for in vitro growth inhibitory activity against several experimental tumor lines including human and murine leukemia, mouse melanoma, and human lymphoblastic leukemia.

B16 = experiment: Inhibition of growth in vitro of B16 cells; type: cell-based, mouse; settings: actively growing tumor cells
Description: as §1

P388/ADR [2] = experiment: Antitumor activity against ip implanted P388/ADR in CDF1 mice; type: in vivo; design: OD (optimal dose of drugs): unit not given here; settings: for % ILS (percent increase in median life time vs controls) / (surv) number of 60 days survivors/number of animals tested / MST (median survival time): ip qd 1-9, at optimal dose; for OD (optimal dose of drugs): treated ip qd 1-9
Description: ^e Optimal dose of drugs.
^ f Median survival time of tumor bearing mice.
^g Percent increase in median life time in days of drugtreated dying
animals vs those of controls; (survivors), number of 60 days
survivors/number of animals tested in the group.
In order to examine a broader spectrum of activity, these optical isomers are tested in two other mouse leukemia cell lines in vivo. One cell line, P388/ADR, is a derivative of the above P388/S made resistant to intercalating agents like […].

L1210 cells = experiment: Inhibition of growth of L1210 cells in culture; type: cell-based, Murine
Description: as §1

leukemia L1210 = experiment: Activity in mice bearing leukemia L1210; type: in vivo; settings: L1210 ip in CDF1 mouse
Excerpt: ^e OD, optimal dose of drugs in milligrams/killograms per injection,
administered ip on days 1, 5, and 9, following ip inoculation with
^f % ILS, percent increase in median life span in days, of the
tumorbearing drugtreated dying animals when compared with similar tumor
bearing mice but not treated with drugs. (surv), number of over 60 days
survivors/number of animals tested.

B16 melanoma [3] = experiment: B16 melanoma implanted sc, drug iv (sc-iv) in BDF1 mice; type: in vivo; settings: B16 sc implanted; for % ILS / (surv) sixty day survivors/number of mice treated / MST (median survival time): drug iv day 1; for OD (optimal dose): drug iv day 1, 0.1 mL vehicle
Description: (§2) Subcutaneously implanted B16 melanoma in BDF1 mice is a slow growing tumor, but its rate of growth becomes faster when it is implanted ip. […] This is not consistent with data in other tumors; however, in this connection it should be pointed out that the combined effects of drugs (or enantiomers in this case) can be manifested in several ways, i.e., they can be synergistic, additive, or subtractive.
(§3) 0.2 ml of brei (tumor weight/Hank's balanced salt solution, (1:5) of B16
(§4) implanted sc or ip into groups of nine BDF1 mice on day 0. Drugs
(§5) administered iv on day 1 or ip on days 1, 5, and 9, following tumor
(§6) administered ip on days 1, 5, and 9. OD, optimal dose in
(§7) milligrams/milliliter of vehicle, and administered iv or ip in 0.1 mL of
(§8) vehicle (5% v/v Me2 SOsaline). MST, median survival times in days of
(§9) tumor bearing and nondrug treated (control) or drugtreated mice. % ILS,
(§10) percent increase in life span of drug treated groups over the control
(§11) group of test animals, excluding survivors. (surv), number of sixty day
(§12) survivors/number of mice treated with drug.

B16 melanoma [4] = experiment: B16 melanoma implanted ip, drug ip (ip-ip) in BDF1 mice; type: in vivo; settings: B16 ip implanted; for % ILS / (surv) sixty day survivors/number of mice treated / MST (median survival time): drug ip days 1, 5, 9; for OD (optimal dose): drug ip days 1, 5, 9, 0.1 mL vehicle
Description: as §2, §3, §4, §5, §6, §7, §8, §9, §10, §11, §12

C26 colon carcinoma = C26 colon carcinoma implanted in CDF1 mice, drug ip; type: in vivo; settings: for % ILS / (surv) sixty day survivors/number of mice treated / MST: drug ip days 1, 5, 9; for OD (optimal dose): drug ip days 1, 5, 9, 0.1 mL vehicle
Description: implantation. Primary colon C26 carcinoma (tripan blue excluding, 2.5
× 10^5 cells/mouse) implanted in CDF1 mice on day 0; drug
as §6, §7, §8, §9, §10, §11, §12

CCRF-CEM = experiment: In vitro growth inhibition of CCRF-CEM human lymphoblastic leukemia cells; type: cell-based; settings: purer (90%) form of isomers, listed as R-(+) isomer
Description: as §1

[5] = ip days 1, 5, 9, at optimal dose

Row | Compound | % ILS (percent increase in median life time vs controls) (P388/ADR [2]) | (surv) number of 60 days survivors/number of animals tested (P388/ADR [2]) | MST (median survival time) (P388/ADR [2]) | OD (optimal dose of drugs) (P388/ADR [2]) | % ILS (B16 melanoma [3]) | (surv) sixty day survivors/number of mice treated (B16 melanoma [3]) | MST (median survival time) (B16 melanoma [3]) | OD (optimal dose) (B16 melanoma [3]) | % ILS (B16 melanoma [4]) | (surv) sixty day survivors/number of mice treated (B16 melanoma [4]) | MST (median survival time) (B16 melanoma [4]) | OD (optimal dose) (B16 melanoma [4]) | % ILS (C26 colon carcinoma) | (surv) sixty day survivors/number of mice treated (C26 colon carcinoma) | MST (C26 colon carcinoma) | OD (optimal dose) (C26 colon carcinoma) | further results
1 | Cc1c2oc3c(C)c(OCC4CO4)cc(C(=O)NC4C(=O)NC(C(C)C)C(=O)N5CCCC5C(=O)N(C)CC(=O)N(C)C(C(C)C)C(=O)OC4C)c3nc-2c(C(=O)NC2C(=O)NC(C(C)C)C(=O)N3CCCC3C(=O)N(C)CC(=O)N(C)C(C(C)C)C(=O)OC2C)c(N)c1=O [(R)-(+)-EPA, 7-(2,3-epoxypropoxy) actinomycin D] | 400% | 4/10 | 45 days | 0.30 | 70% | 1/9 | 56.0 days | 1.0 milligrams/milliliter of vehic | 105% | 2/9 | 39.0 days | 0.30 milligrams/milliliter of vehic | 89% | 2/10 | 41.5 days | 0.60 milligrams/milliliter of vehic | inhibition of growth ID50 P388/ADR (P388/ADR [1]): 40 ± 12 nM; inhibition of growth ID50 B16 (B16): 2.0 ± 0.4 nM; inhibition of growth of L1210 cells in culture; ID50 (L1210 cells): 23.1 ± 7.7 nM; OD (optimal dose) (leukemia L1210; ip days 1, 5, 9): 0.05 milligrams/killograms per inje; % ILS (percent increase in median life span) (leukemia L1210; [5]): 199%; (surv) number of over 60 days survivors/number of animals tested (leukemia L1210; [5]): 3/9; 50% growth inhibitory dose (ID50) (CCRF-CEM): 2.0 nM
2 | CO[C@@]12[C@H](COC(N)=O)C3=C(C(=O)C(C)=C(N)C3=O)N1C[C@@H]1N[C@@H]12 [mitomycin, mitomycin C, reference compound] | 400% | 5/10 | 45 days | 1.0 |  |  |  |  |  |  |  |  |  |  |  |  | 
3 | COc1cccc2c1C(=O)c1c(O)c3c(c(O)c1C2=O)C[C@@](O)(C(=O)CO)C[C@@H]3O[C@H]1C[C@H](N)[C@H](O)[C@H](C)O1 [adriamycin, reference compound] |  |  |  |  | 79% | 1/9 | 59.0 days | 5.0 milligrams/milliliter of vehic | 224% | 7/9 | 60.0 days | 5.0 milligrams/milliliter of vehic | 118% | 3/10 | 48.0 days | 2.50 milligrams/milliliter of vehic | 
